What was measured:
PHD-2/Egln1 = PHD-2/Egln1 (Homo sapiens, UniProt Q9GZT9); assay: DARTS with Western blot, HeLa lysate; assay type: binding; settings: TNC buffer pH 8.0, 10 mM CaCl2; room temperature
[1] = target: ATP5B (ATP synthase subunit beta) (Homo sapiens, UniProt P06576); assay: DARTS with LC-MS/MS; assay type: binding; settings: TNC buffer pH 8.0, 10 mM CaCl2; room temperature
ATP5B (ATP synthase subunit beta), sequence (P06576 48-529): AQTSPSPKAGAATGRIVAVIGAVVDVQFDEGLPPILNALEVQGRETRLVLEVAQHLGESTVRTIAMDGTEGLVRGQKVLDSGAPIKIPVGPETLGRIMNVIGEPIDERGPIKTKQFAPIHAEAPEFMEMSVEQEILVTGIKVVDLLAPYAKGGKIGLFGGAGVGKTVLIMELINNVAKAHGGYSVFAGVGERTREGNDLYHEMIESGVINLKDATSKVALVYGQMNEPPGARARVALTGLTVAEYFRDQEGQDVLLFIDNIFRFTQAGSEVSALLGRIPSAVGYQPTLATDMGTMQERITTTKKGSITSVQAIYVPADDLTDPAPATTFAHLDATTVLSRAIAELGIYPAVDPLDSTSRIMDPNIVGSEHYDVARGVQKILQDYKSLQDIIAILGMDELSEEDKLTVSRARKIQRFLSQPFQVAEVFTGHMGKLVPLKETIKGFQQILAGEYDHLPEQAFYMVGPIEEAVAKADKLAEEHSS

PHD-2/Egln1, sequence (Q9GZT9 2-426): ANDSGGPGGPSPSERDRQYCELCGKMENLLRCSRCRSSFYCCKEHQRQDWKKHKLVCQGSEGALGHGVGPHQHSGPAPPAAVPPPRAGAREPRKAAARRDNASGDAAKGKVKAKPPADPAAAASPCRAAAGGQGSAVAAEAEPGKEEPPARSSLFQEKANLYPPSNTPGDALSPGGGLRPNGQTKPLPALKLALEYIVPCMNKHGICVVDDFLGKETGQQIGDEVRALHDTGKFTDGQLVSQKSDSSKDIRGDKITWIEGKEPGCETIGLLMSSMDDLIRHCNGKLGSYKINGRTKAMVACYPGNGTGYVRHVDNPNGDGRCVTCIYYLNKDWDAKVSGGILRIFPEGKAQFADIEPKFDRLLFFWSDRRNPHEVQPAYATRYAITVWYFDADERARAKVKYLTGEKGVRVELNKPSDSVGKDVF

DARTS with Western blot, HeLa lysate (PHD-2/Egln1): Binding between α-KG and PHD-2/Egln1
Compound: O=C(O)CCC(=O)C(=O)O [α-KG]
DARTS with LC-MS/MS (Jurkat) and Western blot (HeLa) [1]: DARTS confirms α-KG binding specifically to ATP5B
